Test results from patent US20080175918A1, “CHEMICALLY CROSS-LINKED ELASTOMERIC MICROCAPSULES” (priority 2005, published 2008).

Experiment: Rhodamine release from chemically cross-linked poly(dimethyl siloxane) microcapsules (fluorescence photomicrographs, confocal microscopy)
Type: physicochemical
From the text: FIGS. 18(a)-(c). A series of photomicrographs (200× magnification) depicting a population of rhodamine B-containing chemically cross-linked elastomeric microcapsules one hour and one year after manufacturing. […] In Particular:
Elastomer-Permeable Therapeutic Agent Microencapsulation. Rhodamine dye was encapsulated within chemically cross-linked poly(dimethyl siloxane) microcapsules utilizing the hydrophilic agent encapsulation methods at low concentrations due to the hydrophilicity of the aqueous solution. However, rhodamine is hydrophobic and permeates vulcanized poly(dimethyl siloxane) in the same fashion as a hydrophobic therapeutic agent. The resultant population of microspheres was sieved and re-suspended in a dilute aqueous poly(vinyl alcohol) solution. Upon resuspension in the rhodamine-free aqueous solution, a series of fluorescence photomicrographs were obtained.
To further investigate the shell-permeability and partition coefficient of the rhodamine within chemically cross-linked elastomeric microcapsules samples of the population of microcapsules that was tested for release were imaged by confocal microscopy.

For CCN(CC)c1ccc2c(-c3ccccc3C(=O)O)c3ccc(=[N+](CC)CC)cc-3oc2c1 [Rhodamine dye, rhodamine B], the “extended release of a model therapeutic (duration)” value (rhodamine in aqueous cores of cross-linked poly(dimethyl siloxane) microcapsules, in dilute aqueous poly(vinyl alcohol), unstirred at room temperature) was “greater than one year” and the burst effect (upon resuspension in rhodamine-free aqueous solution) was “No burst effect was observed”.
